Measurements reported in publication PMC6774960, “Design, synthesis and biological evaluation of a series of new resveratrol analogues as potential anti-cancer agents” (Royal Society Open Science, 2019).

What was measured:
HepG2 cells [1] = experiment: MTT anti-proliferation assay, HepG2; format: cell-based, human; settings: average of three determinations
Method: (§1) The 22 synthesized resveratrol compounds were evaluated for anti-proliferative activities against three human cancer cell lines, including HepG2, A549 and HeLa cells, using 3-[4,5-dimethylthiazol-2-yl]-2,5 diphenyl tetrazolium bromide (MTT) assays. Paclitaxel, a well-known tubulin inhibitor, was used as a positive control. […] Therefore, the inhibitory activity of the compounds depended not only on the 2-position substitution of acrylic acid, but also on the 3-position substitution of acrylic acid.
(§2) The anti-proliferative and cytotoxicity activity was determined using MTT assay. Human cervical carcinoma HeLa cells, human hepatocellular carcinoma HepG2 cells, human lung carcinoma A549 cells were representative in the anti-proliferation assay, which were obtained from the Shanghai Institute of Cell Biology (Shanghai, China). Normal African green monkey kidney Vero cells were a gift from Dr Xiumiao He at Guangxi University for Nationalities. Normal human hepatocytes LO2 cells were a gift from Dr Xing Lin at Guangxi Medical University. The HepG2, Hela, LO2 and Vero cells were cultured in Dulbecco's modified Eagle's medium (DMEM, Gibco) and the A549 cells were cultured in RPMI1640 (Gibco), both media were supplemented with 10% fetal calf serum and antibiotics (100 IU ml^−1 penicillin, 100 IU ml^−1 streptomycin; Amresco).
(§3) Cells were seeded in 96-well microtiter plates at a density of 1 × 10^4 cells well^−1 and incubated with different concentrations of compound (6.25, 12.50, 25.00, 50.00 to 100.00 µM), cisplatin and paclitaxel in RPMI-1640 or DMEM at 37°C with 5% CO2. After 24 h, cell morphology was observed using a light microscope, and then 20 µl of MTT solution (5 mg ml^−1) was added to the well and incubated for 4 h, then cell survival was determined by measuring the optical density (OD) absorbance at a wavelength of 570 nm using an ELISA microplate reader. The inhibition rate (IR) following each compound treatment was determined by the following equation: IR (%) = (1 − ODexp/ODcon) × 100%, where ODexp and ODcon are the OD of the treated and untreated cells, respectively. Cisplatin and paclitaxel were used as positive control drugs.

A549 cells = experiment: MTT anti-proliferation assay, A549; format: cell-based, human; settings: average of three determinations
Method: as §1, §2, §3

[2] = MTT cytotoxicity test, Vero; format: cell-based, African green monkey; settings: African green monkey, Vero cells (normal African green monkey kidney), average of three determinations
Method: (§4) Vero cells are non-tumorigenic cell lines and are important raw materials as the research and production of biological products. Vero cells show low tumorigenicity and had been approved for use in the production of human virus vaccines. Thus, Vero cells were chosen as a control for cytotoxicity. All compounds were evaluated for their cell toxicity against Vero and normal human hepatocytes cells line (LO2) using MTT assays.
as §2, §3

[3] = MTT cytotoxicity test, LO2; format: cell-based, human; settings: human, LO2 cells (normal human hepatocytes), average of three determinations
Method: as §4, §2, §3

HepG2 cells [4] = experiment: Morphologic observation by light microscope; format: cell-based, human; settings: HepG2, 15 and 45 µM, 24 h
Method: Morphological observations can directly reflect the effects of drugs on cells. HepG2 cells were cultured with increasing concentrations of compound r (0, 5, 15 and 45 µM) for 24 h and observed using a light microscope. The cell morphology was clearly altered with the increase in drug concentration (figure 2).
Figure 2. Effect of compound r on the microscopic examination of HepG2 cells. Morphology of HepG2 treated with compound r (0, 5, 15 and 45 µM) and cisplatin (20 µM) for 24 h. Light microscopy photographs, with 40× objective.
as §3

β-tubulin in HepG2 cells = experiment: Immunofluorescence microscopy assay of β-tubulin; format: cell-based, human; settings: 24 h
Method: Resveratrol was previously reported to hamper microtubule function. To examine whether the anti-proliferative activity of compound r, a resveratrol derivative, was related to an interaction with tubulin, we examined β-tubulin in HepG2 cells treated with compound r and by immunofluorescence assay. Compound r ranging from 5 to 45 µM inhibited β-tubulin for 24 h (figure 3). […] In addition, after incubation with compound r (5, 15 and 45 µM), many cells became multinucleated. These phenomena were consistent with those observed with other microtubule-targeted drugs.
Figure 3. Compound r promoted microtubule depolymerization in HepG2 cells. The HepG2 cells were treated with 0, 5, 15 or 45 µM compound r for 24 h, microtubule networks and nuclei were observed by immunofluorescence microscopy assay.
HepG2 cells were cultured in DMEM supplemented with 10% fetal bovine serum on coverslips in 6-well plates and allowed to adhere for at least 12 h. Cells were then incubated in the presence or absence of compound r (0, 5, 15, 45 µM) for 24 h. Control cells were incubated with vehicle alone. […] Cell nuclei were stained with 4,6-diamidino-2-phenylindole (DAPI) and then images were obtained with a fluorescence microscope equipped with a motorized image capture system. […]

IC50 (HepG2 cells [1]; 24 h): 7 ± 1 µM
IC50 (HepG2 cells [1]; Homo sapiens, HepG2, 24 h): 7.49 µM
IC50 (A549 cells; 24 h): 3.8 ± 0.3 µM
IC50 (A549 cells; Homo sapiens, A549, 24 h): 3.77 µM
SMILES: COc1ccc(C(=Cc2cc(C(F)(F)F)ccc2Cl)C(=O)O)cc1 [compound r, 3-(2-chloro-5-(trifluoromethyl)phenyl)-2-(4-methoxyphenyl) acrylic acid]
CC50 at 24 h [2]: 84 ± 3 µM
CC50 at 24 h [3]: > 100 µM
cell morphology (HepG2 cells [4]): shrinkage, rounding and detachment from the plate surface
microtubule network / cytoskeleton appearance (β-tubulin in HepG2 cells; HepG2, 45 µM): microtubules appeared depolymerized
microtubule network / cytoskeleton appearance (β-tubulin in HepG2 cells; HepG2, 5 and 15 µM): highly abnormal cytoskeleton
